How the values were obtained:
[1] = system: MAPK14 (Balb/c mice); experiment: TNF-alpha Inhibition (Balb/c Mice)
[2] = molecular target: MAPK14 (UniProt Q16539); experiment: P38-alpha Kinase Inhibition
[3] = molecular target: MAPK14 (human) (UniProt Q16539); conditions: Monocyte
MAPK14 (human), sequence (Q16539 whole entry, looked up): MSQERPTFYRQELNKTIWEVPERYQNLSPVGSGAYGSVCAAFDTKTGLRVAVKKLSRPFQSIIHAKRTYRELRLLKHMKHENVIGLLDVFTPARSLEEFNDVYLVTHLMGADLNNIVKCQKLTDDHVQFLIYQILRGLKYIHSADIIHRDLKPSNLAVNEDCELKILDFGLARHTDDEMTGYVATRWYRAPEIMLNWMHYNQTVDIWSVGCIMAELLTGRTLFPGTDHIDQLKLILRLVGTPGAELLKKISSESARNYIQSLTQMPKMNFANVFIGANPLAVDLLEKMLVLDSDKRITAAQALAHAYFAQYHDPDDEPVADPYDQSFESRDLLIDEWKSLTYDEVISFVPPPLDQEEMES

MAPK14, sequence (Q16539 whole entry, looked up): as above

Structure (SMILES)	IC50 [2]	EC50 [3]	ED50 [1]
CC(C)C1O[C@H](c2nc(-c3ccncc3)c(-c3ccc(F)cc3)[nH]2)OCC1(C)C (stereo partly specified)	–	0.115 µM	–
C=C1COC(c2nc(-c3ccncc3)c(-c3ccc(F)cc3)[nH]2)OC1	–	0.117 µM	–
C[C@]1(N)CO[C@H](c2nc(-c3ccncc3)c(-c3ccc(F)cc3)[nH]2)OC1	–	0.18 µM	–
OC[C@H]1CO[C@@H](c2nc(-c3ccncc3)c(-c3ccc(F)cc3)[nH]2)OC1	–	0.2 µM	–
Fc1ccc(-c2[nH]c([C@H]3OC[C@H](Cc4ccccc4)CO3)nc2-c2ccncc2)cc1	–	0.191 µM	–
C[C@]1(NC(=O)c2ccccc2)CO[C@H](c2nc(-c3ccncc3)c(-c3ccc(F)cc3)[nH]2)OC1	0.044 µM	0.11 µM	11 mg/kg
Fc1ccc(-c2[nH]c([C@H]3OC[C@@H](Cc4ccccc4)CO3)nc2-c2ccncc2)cc1	–	0.145 µM	–

More lines, main results first:

IC50 [2]	EC50 [3]	Structure (SMILES)	ED50 [1]
0.05 µM	0.11 µM	C[C@]1(C(=O)N2CCOCC2)CO[C@H](c2nc(-c3ccncc3)c(-c3ccc(F)cc3)[nH]2)OC1	6 mg/kg
–	0.033 µM	C[C@]1(CN)CO[C@@H](c2nc(-c3ccncc3)c(-c3ccc(F)cc3)[nH]2)OC1	–
–	0.055 µM	C[C@]1(N)CO[C@@H](c2nc(-c3ccncc3)c(-c3ccc(F)cc3)[nH]2)OC1	–
–	0.038 µM	C[C@]1(CN)CO[C@H](c2nc(-c3ccncc3)c(-c3ccc(F)cc3)[nH]2)OC1	–
–	0.084 µM	C[C@]1(CNC(=O)c2ccccc2)CO[C@H](c2nc(-c3ccncc3)c(-c3ccc(F)cc3)[nH]2)OC1	–

Source: the Kinase Knowledgebase extract (Sharma et al. 2016)
